# Patent US20220306630A1, “AGONISTS OF ROR GAMMAt” (BRISTOL-MYERS SQUIBB COMPANY, priority 2019, published 2022)
# Molecular target: T1, RORgT (Homo sapiens, UniProt P51449)
# T1 construct: Gal4 (fusion partner); expressed in transfected cells; host or cells: engineered Jurkat cells (Jurkat pEx/Gal/hRORγ CLBD/HYG pG5luc/blast)
# T1 sequence (P51449 267-516): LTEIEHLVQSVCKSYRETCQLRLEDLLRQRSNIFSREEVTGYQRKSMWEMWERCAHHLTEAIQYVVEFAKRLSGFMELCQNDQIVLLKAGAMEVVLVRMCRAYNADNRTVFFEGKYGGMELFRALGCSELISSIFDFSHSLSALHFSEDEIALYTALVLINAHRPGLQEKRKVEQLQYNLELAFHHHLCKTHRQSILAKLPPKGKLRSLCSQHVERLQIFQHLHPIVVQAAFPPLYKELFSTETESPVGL
# Experiment: RORgT Gal4 Luciferase Reporter Gene Assay
# Format: cell-based
# Settings: engineered Jurkat cells overexpressing RORgT (LBD or full length) with Gal4 Luc reporter; 18 hours at 37° C.; 40 μM to 0.67 nM; read-out: RORg_GAL4 EC50
# Summary of the method: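 Cells exposed to compound 18 hours at 37° C, then lysed for luciferase luminescence. Inhibition of constitutive activity expressed as percent reduction of signal window relative to a control compound.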
row,SMILES,EC50 [nM]
1,CC(C)c1cc(Oc2c(Cl)cc(NC(=O)CC3CCN(S(C)(=O)=O)CC3)cc2Cl)ccc1F [Example 266],11
2,C=C(C)c1cc(Oc2c(Cl)cc(NC(=O)CC3CCN(S(C)(=O)=O)CC3)cc2Cl)ccc1Cl [Example 269],185
3,CC(C)c1cc(F)cc(Oc2c(Cl)ccc(C(=O)NCC3CCN(S(C)(=O)=O)CC3)c2Cl)c1 [Example 261],14
4,COc1ccc(Oc2c(Cl)cc(NC(=O)CCC(N)=O)cc2Cl)cc1C(C)C [Example 281],375
5,COc1ccc(Oc2c(Cl)ccc(C(=O)NCC3CCCC(O)C3)c2Cl)cc1C(C)C (stereo not shown) [Example 226],286
6,COc1ccc(Oc2c(Cl)cc(NC(=O)Cc3cnc(S(C)(=O)=O)cn3)cc2Cl)cc1C(C)C [Example 243],1280
7,COCCN(C)C(=O)c1ccc(Cl)c(Oc2ccc(OC)c(C(C)C)c2)c1Cl [Example 182],355
8,COc1ccc(Oc2c(Cl)ccc(C(=O)NCC3CCOCC3)c2Cl)cc1C(C)C [Example 216],813
9,"COc1ccc(Oc2c(Cl)cc(NC(=O)Cc3cccc(C#N)c3)cc2Cl)cc1C(C)C [Example 4, 2-(3-cyanophenyl)-N-(3,5-dichloro-4-(3-isopropyl-4-methoxyphenoxy)phenyl) acetamide]",121
10,COc1ncc(Oc2c(Cl)cc(NC(=O)CC3CCN(C(=O)C(F)(F)F)CC3)cc2Cl)cc1C(C)C [Example 74],49
11,COc1ccc(Oc2c(Cl)ccc(CNC(=O)CC3CCN(S(C)(=O)=O)CC3)c2Cl)cc1C(C)C [Example 222],225
12,COc1ccc(Oc2c(Cl)cc(NC(=O)CCN3CCCC3=O)cc2Cl)cc1C(C)C [Example 291],134
13,CCS(=O)(=O)N1CCC(CC(=O)Nc2cc(Cl)c(Oc3ccc(OC)c(C(C)C)c3)c(Cl)c2)CC1 [Example 319],33
14,COc1ccc(Oc2c(Cl)ccc(C(=O)NCc3ccccc3Cl)c2Cl)cc1C(C)C [Example 200],330
15,COc1ncc(Oc2c(Cl)ccc(C(=O)NC(C)c3ccc(S(C)(=O)=O)cc3)c2Cl)cc1C(C)C (stereo not shown) [Example 135],11
16,CC1(c2cc(F)cc(Oc3c(Cl)ccc(C(=O)NCc4ccc(S(N)(=O)=O)cc4)c3Cl)c2)CC1 [Example 278],1.7
17,COc1ccc(Oc2c(Cl)ccc(C(=O)NCC3CCN(S(=O)(=O)C(C)C)CC3)c2Cl)cc1C(C)C [Example 93],167
18,COc1ncc(Oc2c(Cl)ccc(CNC(=O)c3ccc(S(N)(=O)=O)cc3)c2Cl)cc1C(C)C [Example 146],28
19,COc1ccc(Oc2c(Cl)ccc(C(=O)NC(C)c3cn(C)nc3C)c2Cl)cc1C(C)C (stereo not shown) [Example 204],40
20,CC(C)(F)c1cc(F)cc(Oc2c(Cl)cc(NC(=O)CC3CCN(S(C)(=O)=O)CC3)cc2Cl)c1 [Example 333],8.1
21,COc1ccc(Oc2c(Cl)cc(NC(=O)CN3CC(NS(=O)(=O)C4CC4)C3)cc2Cl)cc1C(C)C [Example 174],286
22,"COc1ccc(Oc2c(Cl)cc(NC(=O)CCn3cc(S(C)(=O)=O)cn3)cc2Cl)cc1C(C)C [Example 9, N-(3,5-dichloro-4-(3-isopropyl-4-methoxyphenoxy)phenyl)-3-(4-(methylsulfonyl)-1H-pyrazol-1-yl)propanamide]",81

row,SMILES,EC50 [nM]
1,COc1ccc(Oc2c(Cl)ccc(N(C)C(=O)C(C)c3ccc(S(C)(=O)=O)cc3)c2Cl)cc1C(C)C (stereo not shown) [Example 66],268
2,COc1ccc(Oc2c(Cl)ccc(CNC(=O)C3CCN(S(=O)(=O)C4CC4)CC3)c2Cl)cc1C(C)C [Example 97],14
3,COc1ccc(Oc2c(Cl)ccc(C(=O)NCCCCO)c2Cl)cc1C(C)C [Example 81],1310
4,COc1ccc(Oc2c(Cl)cc(NC(=O)Cc3ccc(S(C)(=O)=O)cc3)cc2Cl)cc1C(C)(C)F [Example 336],14
5,COc1ccc(Oc2c(Cl)ccc(CNC(=O)CN3CCN(S(C)(=O)=O)CC3)c2Cl)cc1C(C)C [Example 186],90
6,"COc1ccc(Oc2c(Cl)cc(NC(=O)Cc3ccc(S(C)(=O)=O)cc3)cc2Cl)cc1C(C)C [Example 38, N-(3,5-dichloro-4-(3-isopropyl-4-methoxyphenoxy)phenyl)-2-(4-(methylsulfonyl)phenyl)acetamide]",30
7,"CCOc1ccc(Oc2c(Cl)cc(NC(=O)Cc3cccnc3)cc2Cl)cc1C(C)C [Example 50, N-(3,5-dichloro-4-(4-ethoxy-3-isopropylphenoxy)phenyl)-2-(pyridin-3-yl)acetamide]",75
8,COc1ncc(Oc2c(Cl)ccc(C(=O)NCC3CCN(S(C)(=O)=O)CC3)c2Cl)cc1C(C)C [Example 72],33
9,CC(C)c1cc(Oc2c(Cl)cc(NC(=O)Cc3cccnc3)cc2Cl)ccc1C1CC1 [Example 324],214
10,CCc1cc(Oc2c(Cl)cc(NC(=O)Cc3cccnc3)cc2Cl)ccc1OC [Example 310],293
11,COc1ccc(Oc2c(Cl)cc(NC(=O)CCN3CCOCC3)cc2Cl)cc1C(C)C [Example 296],1010
12,COc1ccc(Oc2c(Cl)cc(C(=O)NCc3ccc(S(C)(=O)=O)cc3)cc2Cl)cc1C(C)C [Example 158],499
13,CCS(=O)(=O)N1CC2(CN(CC(=O)Nc3cc(Cl)c(Oc4ccc(OC)c(C(C)C)c4)c(Cl)c3)C2)C1 [Example 190],989
14,CS(=O)(=O)N1CC2(CCN(C(=O)c3ccc(Cl)c(Oc4cc(F)cc(CCC(F)(F)F)c4)c3Cl)CC2)C1 [Example 327],90
15,CC(C)c1cc(Oc2c(Cl)ccc(C(=O)NCc3ccc(S(N)(=O)=O)cc3)c2Cl)ccc1F [Example 114],5.2
16,COc1ccc(Oc2c(Cl)cc(NC(=O)c3cccc(S(C)(=O)=O)c3)cc2Cl)cc1C(C)C [Example 289],1480
17,COc1ncc(Oc2c(Cl)ccc(NC(=O)Cc3cccc(S(C)(=O)=O)c3)c2Cl)cc1C(C)C [Example 141],182
18,COc1ccc(Oc2c(Cl)cc(NC(=O)Cc3cccnc3S(C)(=O)=O)cc2Cl)cc1C(C)C [Example 240],99
19,COc1ccc(Oc2c(Cl)cc(NC(=O)Cc3ccnc(N)c3)cc2Cl)cc1C(C)C [Example 238],752
20,COc1ccc(Oc2c(Cl)ccc(C(=O)NCC3CN(S(C)(=O)=O)C3)c2Cl)cc1C(C)C [Example 91],88
21,COc1ncc(Oc2c(Cl)ccc(C(=O)NCc3ccc(S(C)(=O)=O)cc3)c2Cl)cc1C(C)C [Example 123],5.4
22,CC(c1cc(F)cc(Oc2c(Cl)cc(NC(=O)CC3CCN(S(C)(=O)=O)CC3)cc2Cl)c1)C(F)(F)F (stereo not shown) [Example 351],5.7

row,SMILES,EC50 [nM]
1,COc1ncc(Oc2c(Cl)ccc(C(=O)NCc3cccc(S(C)(=O)=O)c3)c2Cl)cc1C(C)C [Example 138],225
2,COc1ccc(Oc2c(Cl)ccc(CNC(=O)C3CCN(S(=O)(=O)C(C)C)CC3)c2Cl)cc1C(C)C [Example 95],24
3,"COc1ccc(Oc2c(Cl)cc(N3CC(CNS(N)(=O)=O)OC3=O)cc2Cl)cc1C(C)C (stereo not shown) [Example 12, N-[(3-{3,5-dichloro-4-[4-methoxy-3-(propan-2-yl)phenoxy]phenyl}-2-oxo-1,3-oxazolidin-5-yl)methyl]aminosulfonamide]",1100
4,COc1ccc(Oc2c(Cl)cc(NC(=O)CC3CCCN(S(N)(=O)=O)C3)cc2Cl)cc1C(C)C (stereo not shown) [Example 314],844
5,COc1ccc(Oc2c(Cl)ccc(C(=O)N3CCC(c4ccc(Cl)cc4)CC3)c2Cl)cc1C(C)C [Example 191],128
6,COc1ccc(Oc2c(Cl)ccc(C(=O)N3CCC(O)CC3)c2Cl)cc1C(C)C [Example 189],40
7,CC(C)c1cc(F)cc(Oc2c(Cl)cc(NC(=O)Cc3ccc(S(C)(=O)=O)cc3)cc2Cl)c1 [Example 329],32
8,COc1ccc(Oc2c(Cl)ccc(CNC(=O)C3CN(S(C)(=O)=O)C3)c2Cl)cc1C(C)C [Example 88],24
9,COC(=O)N1CCC(CNC(=O)c2ccc(Cl)c(Oc3ccc(OC)c(C(C)C)c3)c2Cl)CC1 [Example 111],936
10,COc1ccc(Oc2c(Cl)ccc(CNS(=O)(=O)C3CCN(S(C)(=O)=O)CC3)c2Cl)cc1C(C)C [Example 57],16
11,"COc1ccc(Oc2c(Cl)cc(NC(=O)Cc3cccc(C(N)=O)c3)cc2Cl)cc1C(C)C [Example 5, 3-(2-((3,5-dichloro-4-(3-isopropyl-4-methoxyphenoxy)phenyl)amino)-2-oxoethyl)benzamide]",437
12,COc1ccc(Oc2c(Cl)cc(NC(=O)Cc3cncc(S(C)(=O)=O)c3)cc2Cl)cc1C(C)C [Example 242],40
13,COc1ncc(Oc2c(Cl)ccc(C(=O)NC(C)c3ccc(S(C)(=O)=O)cc3)c2Cl)cc1C(C)C (stereo not shown) [Example 137],14
14,COc1ccc(Oc2c(Cl)ccc(C(=O)NCc3cccc(Cl)c3)c2Cl)cc1C(C)C [Example 198],872
15,COc1ccc(Oc2c(Cl)cc(NC(=O)CC3CCCN(S(=O)(=O)C4CC4)C3)cc2Cl)cc1C(C)C (stereo not shown) [Example 317],95
16,COc1ncc(Oc2c(Cl)ccc(C(=O)NCC3CCN(S(C)(=O)=O)CC3)c2Cl)cc1C(C)(C)F [Example 153],195
17,COc1ccc(Oc2c(Cl)ccc(C(=O)N3CCN(C)CC3)c2Cl)cc1C(C)C [Example 196],200
18,COc1ccc(Oc2c(Cl)ccc(C(=O)NCc3ccc(C#N)cc3)c2Cl)cc1C(C)C [Example 228],102
19,COc1ccc(Oc2c(Cl)ccc(C(=O)NC[C@H]3CC[C@H](C(=O)OC)CC3)c2Cl)cc1C(C)C [Example 69],481
20,CC(C)c1cc(F)cc(Oc2c(Cl)cc(NC(=O)CN3CCC(S(C)(=O)=O)CC3)cc2Cl)c1 [Example 331],116
